Tests used:
Canine cardiac lipases [1] = experiment: Myocardial Lipase Assay; type: biochemical; settings: 100 μM compound, 3.0% DMSO, triolein emulsion, pH 6.8, tested in duplicate
Method: All compounds were dissolved in DMSO (final concentration 3.0%) and tested in duplicate at a concentration of 100 μm. Canine cardiac lipases were obtained by extracting washed heart membranes with buffer plus heparin and a small amount of Triton X-100 detergent. Because these enzymes are only active at an oil-water interface, the enzyme reaction is run in an oil-water emulsion that contains triolein substrate, Tris buffer (50 mM, pH 6.8) and a small amount of bovine serum albumin (0.5%) added to stabilize the emulsion. A small amount of tritiated triolein was added to the unlabelled triolein substrate. Tritium-labelled oleic acid released by the lipases was extracted into hexane, separated from unreacted triolein and counted in a scintillation counter. Inhibitory agents reduce the amount of radioactivity appearing in the free fatty acid fraction isolated in the extraction procedure.

Canine cardiac lipases [2] = experiment: Myocardial Lipase Assay; type: biochemical; settings: triolein emulsion, pH 6.8; read-out: Lipase I50
rat adipocyte lipolysis = experiment: Rat Adipocyte Assay (epinephrine-stimulated lipolysis, glycerol release); type: cell-based; settings: epinephrine 3 μM plus methylisobutylxanthine 10 μM, 1 hour at 37° C.; for IC50: read-out: Adipocyte I50; for inhibition at 200 µM: 200 μM compound, read-out: Adipocyte % Inhib. at 200 μM; for inhibition at 30 µM: 30 μM compound, read-out: Adipocyte % Inhib. at 30 μM
Method: Abdominal fat pads were removed from male rats weighing 200-250 grams and placed in Krebs-bicarbonate buffer gassed with 95% O2 /5% CO2. The fat pads were digested with collagenase for 1 hour at 37° C., washed twice with Krebs-bicarbonate buffer and distributed among a set of 20 ml plastic counting vials. Two such vials received only buffer and cells (4 ml) but no angonists or antagonists. The remaining vials received epinephrine (3 μM) plus the phosphodiesterase inhibitor methylisobutylxanthine (10 μM). Test compounds were dissolved in DMSO or water to a concentration of 20 mM or 40 μl was added to the buffer plus cells in the counting vials. The final compound concentration for routine screening was 200 μM (final concentration of DMSO=1%).
The cells were incubated for 1 hour at 37° C. under 95% O2 /5% CO2 atmosphere. The incubation was stopped by placing the vials in crushed ice. The cells and medium were transferred to test tubes, centrifuged and the cell layer removed by aspiration. The aqueous phase was assayed for glycerol using the enzyme glycerol dehydrogenase.
The glycerol dehydrogenase assay for glycerol depends on the enzyme catalyzed conversion of glycerol to glyceraldehyde and NAD to NADH. The assay can detect as little as 5-10 nanomoles of glycerol. The aqueous phase, following removal of cells, usually contained about 50 to 80 nanomoles of glycerol per 300 μl of assayed sample if no inhibitory activity was present. Samples from the control tubes (no agonist) usually contained 0-5 nanomoles of glycerol per 300 μl of sample.

## O=C(Nc1ccccc1C(F)(F)F)Oc1ccc2cccnc2c1 [Example 11, 7-quinolyl-2-trifluoromethyl carbanilate]
Canine cardiac lipases [1]
  Lipase % Inh. at 100 μM: 12%

## COc1ccccc1NC(=O)Oc1ccc2ncccc2c1 [Example 5, 6-quinolyl-2-methoxy carbanilate]
Canine cardiac lipases [2]
  IC50: 42 µM
Rat adipocyte lipolysis
  IC50: 30 µM

## COc1cccc(NC(=O)Oc2ccc3cccnc3c2)c1 [Example 7, 7-quinolyl-3-methoxy carbanilate]
Canine cardiac lipases [1]
  Lipase % Inh. at 100 μM: 52%
Rat adipocyte lipolysis
  inhibition at 200 µM: 25%

## Cc1ccccc1NC(=O)Oc1ccc2cccnc2c1 [Example 10, 7-quinolyl-2-methyl carbanilate]
Canine cardiac lipases [1]
  Lipase % Inh. at 100 μM: 45%
Rat adipocyte lipolysis
  inhibition at 200 µM: 20%

## COc1ccc(NC(=O)Oc2ccc3cccnc3c2)cc1 [Example 1]
Canine cardiac lipases [1]
  Lipase % Inh. at 100 μM: 60%
Rat adipocyte lipolysis
  inhibition at 30 µM: 0%

## COc1ccc(NC(=O)Oc2ccc3ncccc3c2)cc1 [Example 2, 6-quinolyl-4-methoxy carbanilate]
Canine cardiac lipases [1]
  Lipase % Inh. at 100 μM: 64%
Rat adipocyte lipolysis
  inhibition at 30 µM: 8%

## COc1ccccc1NC(=O)Oc1ccc2cccnc2c1 [Example 4, 7-quinolyl-2-methoxy carbanilate]
Canine cardiac lipases [2]
  IC50: 48 µM
Rat adipocyte lipolysis
  IC50: 80 µM

## O=C(Nc1ccccc1Cl)Oc1ccc2cccnc2c1 [Example 9, 7-quinolyl-2-chloro carbanilate]
Canine cardiac lipases [1]
  Lipase % Inh. at 100 μM: 6%

## CCOC(=O)c1ccc(NC(=O)Oc2ccc3cccnc3c2)cc1 [Example 8, 7-quinolyl-4-carbethoxy carbanilate]
Canine cardiac lipases [1]
  Lipase % Inh. at 100 μM: 46%
Rat adipocyte lipolysis
  inhibition at 200 µM: 18%

## COc1ccccc1NC(=O)Oc1cccc2ncccc12 [Example 6, 5-quinolyl-2-methoxy carbanilate]
Canine cardiac lipases [2]
  IC50: 48 µM
Rat adipocyte lipolysis
  inhibition at 200 µM: 31%

## COc1ccc(NC(=O)Oc2cccc3ncccc23)cc1 [Example 3, 5-quinolyl-4-methoxy carbanilate]
Canine cardiac lipases [1]
  Lipase % Inh. at 100 μM: 63%
Rat adipocyte lipolysis
  inhibition at 30 µM: 1%

## COc1ccc(CCNC(=O)Oc2ccc3cccnc3c2)cc1 [Example 12, 7-quinolyl-4-methoxy phenethyl carbamate]
Canine cardiac lipases [1]
  Lipase % Inh. at 100 μM: 97%
Rat adipocyte lipolysis; 100 μM compound, read-out: Adipocyte % Inhib. at 100 μM
  inhibition at 100 µM: 84%

From patent US4547509A, “5,6,7-Quinoline carbanilates and method of treating ischemic heart disease therewith” (USV Pharmaceutical Corp., priority 1983, dated 1985)
